From ChEMBL document CHEMBL3585330, “Anticancer activity of koningic acid and semisynthetic derivatives” (Bioorg Med Chem, 2015)
The source made the active and inactive calls. The rule behind the calls is not given here.

Experiments:
[1] = Half life in mouse at 1.5 mg/kg, ip by tandem HPLC-mass spectrometry; type: ADME, organism-based; conditions: in vivo
[2] = tested on: Mus musculus; experiment: Toxicity in Swiss mouse xenografted with human A549 cells assessed as induction of hepatic toxicity at 2.5 and 5 mg/kg, ip dosed every day for 5 consecutive days during 2 weeks (q1d5 x 2 schedule); type: organism-based; conditions: in vivo, 336 h
[3] = tested on: A-375; experiment: Inhibition of cell invasion of human A375 cells at 10 uM by Boyden chamber assay; type: functional, cell-based
[4] = tested on: A549; experiment: (§1) Antiproliferative activity against human A549 cells assessed as inhibition of cell proliferation incubated for 72 hrs by conventional ATP quantification method; type: functional, cell-based; conditions: A549, 72 h
[5] = tested on: HL-60; experiment: Antiproliferative activity against human HL60 cells assessed as inhibition of cell proliferation incubated for 72 hrs by conventional ATP quantification method; type: functional, cell-based; conditions: HL-60, 72 h
[6] = Half life in mouse at 0.5 mg/kg, iv by tandem HPLC-mass spectrometry; type: ADME, organism-based; conditions: in vivo
[7] = tested on: Mus musculus; experiment: Toxicity in Swiss mouse xenografted with human A549 cells assessed as induction of icterus at 2.5 mg/kg, ip dosed every day for 4 consecutive days during 2 weeks (q1d4 x 2 schedule); type: organism-based; conditions: in vivo, 336 h
[8] = tested on: MDA-MB-231; experiment: Cytotoxicity against human MDA-MB-231 cells incubated for 72 hrs under hypoxic conditions by MTS assay; type: functional, cell-based
[9] = Antiproliferative activity against human BxPC3 cells assessed as inhibition of cell proliferation incubated for 72 hrs by conventional ATP quantification method; type: functional, cell-based; conditions: BXPC-3, 72 h
[10] = Antiproliferative activity against human COLO205 cells assessed as inhibition of cell proliferation incubated for 72 hrs by conventional ATP quantification method; type: functional, cell-based; conditions: COLO 205, 72 h
[11] = tested on: TK-10; experiment: Antiproliferative activity against human TK10 cells assessed as inhibition of cell proliferation incubated for 72 hrs by conventional ATP quantification method; type: functional, cell-based; conditions: TK-10, 72 h
[12] = tested on: T47D; experiment: Antiproliferative activity against human T47D cells assessed as inhibition of cell proliferation incubated for 72 hrs by conventional ATP quantification method; type: functional, cell-based
[13] = tested on: MDA-MB-231; experiment: Cytotoxicity against human MDA-MB-231 cells incubated for 72 hrs under normoxic conditions by MTS assay; type: functional, cell-based
[14] = Cmax in mouse at 1.5 mg/kg, ip by tandem HPLC-mass spectrometry; type: ADME, organism-based; design: dose 1.5 mg/kg, route intraperitoneal; conditions: in vivo
[15] = Antiproliferative activity against human KG1 cells assessed as inhibition of cell proliferation incubated for 72 hrs by conventional ATP quantification method; type: functional, cell-based; conditions: KG-1, 72 h
[16] = tested on: A549; experiment: Antitumor activity against human A549 cells xenografted in Swiss mouse assessed as effect on median tumor volume at 1 mg/kg, ip dosed every day for 5 consecutive days during 2 weeks (q1d5 x 2 schedule); type: functional, organism-based
[17] = tested on: A-375; experiment: Antiproliferative activity against human A375 cells assessed as inhibition of cell proliferation incubated for 24 hrs by conventional ATP quantification method relative to untreated control; type: functional
[18] = tested on: A-375; experiment: Antiproliferative activity against human A375 cells assessed as inhibition of cell proliferation incubated for 24 hrs by conventional ATP quantification method; type: functional, cell-based; conditions: A-375, 24 h
[19] = Oral bioavailability in mouse at 2.5 mg/kg by tandem HPLC-mass spectrometry; type: ADME, organism-based; conditions: in vivo
[20] = tested on: HOP-62; experiment: Antiproliferative activity against human HOP62 cells assessed as inhibition of cell proliferation incubated for 72 hrs by conventional ATP quantification method; type: functional, cell-based; conditions: HOP-62, 72 h
[21] = Tmax in mouse at 1.5 mg/kg, ip by tandem HPLC-mass spectrometry; type: ADME, organism-based; conditions: in vivo
[22] = Half life in mouse at 2.5 mg/kg, po by tandem HPLC-mass spectrometry; type: ADME, organism-based; conditions: in vivo
[23] = Cmax in mouse at 2.5 mg/kg, po by tandem HPLC-mass spectrometry; type: ADME, organism-based; design: dose 2.5 mg/kg, route oral; conditions: in vivo
[24] = Tmax in mouse at 2.5 mg/kg, po by tandem HPLC-mass spectrometry; type: ADME, organism-based; conditions: in vivo
[25] = tested on: DU-145; experiment: Antiproliferative activity against human DU145 cells assessed as inhibition of cell proliferation incubated for 72 hrs by conventional ATP quantification method; type: functional, cell-based; conditions: DU-145, 72 h
[26] = Initial plasma concentration in mouse at 0.5 mg/kg, iv by tandem HPLC-mass spectrometry; type: ADME, organism-based
[27] = Antiproliferative activity against human NAMALWA cells assessed as inhibition of cell proliferation incubated for 72 hrs by conventional ATP quantification method; type: functional, cell-based; conditions: NAMALVA
[28] = Antiproliferative activity against human WM266.4 cells assessed as inhibition of cell proliferation incubated for 72 hrs by conventional ATP quantification method; type: functional, cell-based; conditions: WM 266-4, 72 h
[29] = tested on: HCT-116; experiment: (§2) Antiproliferative activity against human HCT116 cells assessed as inhibition of cell proliferation incubated for 72 hrs by conventional ATP quantification method; type: functional, cell-based; conditions: HCT-116, 72 h
[30] = tested on: A549; experiment: as §1; type: functional, cell-based; conditions: A549, 72 h; remark: listed apart in the source
[31] = tested on: A-375; experiment: Toxicity against human A375 cells assessed as membrane integrity by measuring LDH release incubated for 24 hrs; type: cell-based; conditions: a-375, 24 h
[32] = tested on: A-375; experiment: Antiproliferative activity against human A375 cells assessed as inhibition of cell proliferation incubated for 72 hrs by conventional ATP quantification method; type: functional, cell-based; conditions: A-375, 72 h
[33] = AUClast in mouse at 2.5 mg/kg, po by tandem HPLC-mass spectrometry; type: ADME, organism-based; design: dose 2.5 mg/kg, route oral, time 0 - last; conditions: in vivo
[34] = tested on: OVCAR-3; experiment: Antiproliferative activity against human OVCAR3 cells assessed as inhibition of cell proliferation incubated for 72 hrs by conventional ATP quantification method; type: functional, cell-based; conditions: OVCAR-3, 72 h
[35] = tested on: MDA-MB-231; experiment: Antiproliferative activity against human MDA-MB-231 cells assessed as inhibition of cell proliferation incubated for 72 hrs by conventional ATP quantification method; type: functional, cell-based; conditions: MDA-MB-231, 72 h
[36] = Toxicity in Swiss mouse xenografted with human A549 cells dosed intraperitoneally every day for 5 consecutive days during 2 weeks (q1d5 x 2 schedule); type: organism-based; conditions: in vivo, ip
[37] = tested on: HT-29; experiment: Cytotoxicity against human HT-29 cells incubated for 72 hrs under normoxic conditions by MTS assay; type: functional, cell-based
[38] = tested on: NCI-H460; experiment: Antiproliferative activity against human NCI-H460 cells assessed as inhibition of cell proliferation incubated for 72 hrs by conventional ATP quantification method; type: functional, cell-based; conditions: NCI-H460, 72 h
[39] = tested on: SK-OV-3; experiment: Antiproliferative activity against human SKOV3 cells assessed as inhibition of cell proliferation incubated for 72 hrs by conventional ATP quantification method; type: functional, cell-based; conditions: SK-OV-3, 72 h
[40] = AUClast in mouse at 1.5 mg/kg, ip by tandem HPLC-mass spectrometry; type: ADME, organism-based; design: dose 1.5 mg/kg, route intraperitoneal, time 0 - last; conditions: in vivo
[41] = tested on: Mus musculus; experiment: Toxicity in Swiss mouse xenografted with human A549 cells assessed as induction of body weight loss at 2.5 mg/kg, ip dosed every day for 4 consecutive days during 2 weeks (q1d4 x 2 schedule); type: organism-based; conditions: in vivo, 336 h
[42] = tested on: KM12; experiment: Antiproliferative activity against human KM12 cells assessed as inhibition of cell proliferation incubated for 72 hrs by conventional ATP quantification method; type: functional, cell-based; conditions: KM12, 72 h
[43] = tested on: A549; experiment: Antitumor activity against human A549 cells xenografted in Swiss mouse aggressive tumor model assessed as effect on rate of tumor growth at 1 mg/kg, ip dosed every day for 5 consecutive days during 2 weeks (q1d5 x 2 schedule); type: functional, organism-based
[44] = tested on: HT-29; experiment: Cytotoxicity against human HT-29 cells incubated for 72 hrs under hypoxic conditions by MTS assay; type: functional, cell-based
[45] = tested on: Mus musculus; experiment: Toxicity in Swiss mouse xenografted with human A549 cells assessed as induction of renal toxicity at 2.5 and 5 mg/kg, ip dosed every day for 5 consecutive days during 2 weeks (q1d5 x 2 schedule); type: organism-based; conditions: in vivo, 336 h
[46] = tested on: PANC-1; experiment: Induction of ROS generation in human PANC1 cells incubated for 1 hr by DCFH-DA dye based assay; type: functional, cell-based
[47] = tested on: A-375; experiment: Toxicity against human A375 cells assessed as reduction in cell viability at 10 uM; type: cell-based; conditions: a-375, 10 µM
[48] = AUClast in mouse at 0.5 mg/kg, iv by tandem HPLC-mass spectrometry; type: ADME, organism-based; design: dose 0.5 mg/kg, route intravenous, time 0 - last; conditions: in vivo
[49] = tested on: HCT-116; experiment: as §2; type: functional, cell-based; conditions: HCT-116, 72 h; remark: listed apart in the source
[50] = tested on: A549; experiment: Antitumor activity against human A549 cells xenografted in Swiss mouse assessed as reduction of subcutaneous tumor growth at 1 mg/kg, ip dosed every day for 5 consecutive days during 2 weeks (q1d5 x 2 schedule); type: functional, organism-based

Compound: CC(C)[C@H]1CC[C@@]2(CO2)[C@H]2C(=O)OCC(C(=O)O)=C[C@H]12
- half-life [1]: 6 min
- Activity [2]: Toxic
- inhibition [3]: inactive
- IC50 [4]: 458 nM
- IC50 [5]: 760 nM
- half-life [6]: 2.4 min
- Activity [7]: Toxic
- Activity [8]: Active
- IC50 [9]: 760 nM
- IC50 [10]: 630 nM
- IC50 [11]: 660 nM
- IC50 [12]: 210 nM
- Activity [13]: Active
- Cmax [14]: 249 ng/mL
- IC50 [15]: 400 nM
- Activity [16]: inactive
- inhibition (INH) [17]: 90%
- IC50 [18]: 1260 nM
- bioavailability [19]: 17%
- IC50 [20]: 510 nM
- Tmax [21]: 15 min
- half-life [22]: 30 min
- Cmax [23]: 17 ng/mL
- Tmax [24]: 15 min
- IC50 [25]: 890 nM
- C0 [26]: 180 ng/mL
- IC50 [27]: 302 nM
- IC50 [28]: 509 nM
- IC50 [29]: 210 nM
- IC50 [30]: 990 nM
- Activity [31]: 8%
- IC50 [32]: 1340 nM
- AUC(0-t) [33]: 8.6 ng·h/mL
- IC50 [34]: 690 nM
- IC50 [35]: 450 nM
- MTD at 336 h [36]: 1 mg/kg
- Activity [37]: Active
- IC50 [38]: 490 nM
- IC50 [39]: 340 nM
- AUC(0-t) [40]: 78.7 ng·h/mL
- Activity [41]: > 15%
- IC50 [42]: 410 nM
- Activity [43]: inactive
- Activity [44]: Active
- Activity [45]: Toxic
- Activity [46]: inactive
- Activity [47]: 81%
- AUC(0-t) [48]: 10.4 ng·h/mL
- IC50 [49]: 930 nM
- Activity [50]: inactive

Compound: CC(C)[C@H]1CC[C@@](O)(CCl)[C@H]2C(=O)OCC(C(=O)O)=C[C@H]12 [HEPTELIDIC ACID CHLOROHYDRIN]
- IC50 [4]: 550 nM
- IC50 [27]: 320 nM
- IC50 [28]: 550 nM
- IC50 [29]: 220 nM
- IC50 [32]: 1310 nM

Compound: CC(C)[C@H]1CC[C@@](O)(CCl)[C@H]2C(=O)OCC(C(=O)OCc3ccc(-c4ccccc4)o3)=C[C@H]12
- IC50 [4]: 1720 nM
- IC50 [27]: 1110 nM
- IC50 [28]: 2910 nM
- IC50 [29]: 610 nM
- IC50 [32]: 4000 nM

Compound: CC(C)[C@H]1CC[C@@](O)(CO)[C@H]2C(=O)OCC(C(=O)O)=C[C@H]12
- IC50 [4]: > 32000 nM
- IC50 [27]: > 32000 nM
- IC50 [28]: > 32000 nM
- IC50 [29]: > 32000 nM
- IC50 [32]: > 32000 nM

Compound: CC(C)[C@H]1CC[C@@]2(CO2)[C@H]2C(=O)OCC(C(=O)OCc3ccc(-c4ccc([N+](=O)[O-])cc4)o3)=C[C@H]12
- IC50 [4]: 450 nM
- IC50 [27]: 1190 nM
- IC50 [28]: 3600 nM
- IC50 [29]: 620 nM
- IC50 [32]: 1640 nM

Compound: CC(C)[C@H]1CC[C@@](O)(CI)[C@H]2C(=O)OCC(C(=O)O)=C[C@H]12
- IC50 [4]: 5430 nM
- IC50 [27]: 3260 nM
- IC50 [28]: 10100 nM
- IC50 [29]: 2140 nM
- IC50 [32]: > 10000 nM

Compound: BLEOMYCIN
- Activity [46]: Active
